US20240368122A1, “JAK2 INHIBITORS AND METHODS OF USE THEREOF” (RELAY THERAPEUTICS, INC., priority 2021, published 2024)
Read-outs that look alike come from different tables or passages of the source.

Experiments:
[1] = test system: TF1 JAK2 V617F STAT5 reporter; assay: Cellular TF1 STAT5 assay (luciferase reporter), JAK2 V617F; format: cell-based; conditions: read-out: Cell PD TF1 V617F STAT5 (IC50)
Protocol: (§1) Selected compounds of the present disclosure were tested in a Cellular TF1 STAT3 or STAT5 assay, to measure the degree of JAK2-mediated STAT3 or STAT5 phosphorylation, respectively. TF1 cells (immortalized erythroleukemia line) expressing either wildtype or V617F mutant JAK2 with a luciferase reporter were used.
(§2) Cell culture: Cells were put into antibiotic selection (1 ug/ml puro+500 ug/ml Geneticin) when first thawed then maintained in growth media without antibiotics. Cells were maintained in exponential growth phase, between 0.02-1 E6 cells/ml.
(§3) Compound preparation: Compounds were screened as 10-point dose response curves 1:3 dilutions. DMSO is used as the vehicle control. All wells were normalized to the same final DMSO concentration. Compounds were pre-spotted onto 384 well plates using an Echo acoustic dispenser, 50 nL of 1000× (10 mM top concentration) DMSO stock/well. Each compound is run in triplicate plates.
(§4) Cell plating: Cells were counted using Vi-Cell XR, then cells were spun down and resuspended in growth media to 200,000 cells/ml. Cells were added to plates containing compound. 10,000 cells/well in 50 ul volume using a Biomek liquid handler. Plates were briefly mixed on a shaker for 1 minute at 2500 rpm then placed in a 37° C., 5% CO2 incubator overnight for 18-20 hrs.
(§5) Measuring luciferase activity: ONE-glo reagent was brought to room temperature, and 25 μL of ONE-glo assay reagent was added to each well using Biomek liquid handler. The plates were incubated for 10 minutes at room temperature, then luminescence was measured on an Envision plate reader.

[2] = test system: TF1 JAK2 V617F STAT3 reporter; assay: Cellular TF1 STAT3 assay (luciferase reporter), JAK2 V617F; format: cell-based; conditions: read-out: Cell PD-TF1 JAK2 V617F STAT3 (IC50)
Protocol: as §1, §2, §3, §4, §5

[3] = target: T1, JAK2 JH2 WT (V536-D812) [W659A, W777A, F794H solubilizing mutations] (Homo sapiens, UniProt O60674, F794H/W659A/W777A); assay: Surface Plasmon Resonance (SPR) binding assay, JAK2 JH2 domain
T1 construct: **JAK2 JH2 WT (V536-D812) [W659A, W777A, F794H solubilizing mutations]; C-thrombin-avi-His6; thrombin cleavage site (C); His6 (C); purchased Biortus
Protocol: Selected compounds of the present disclosure were tested in a Surface Plasmon Resonance (SPR) Assay to measure their binding kinetics and affinity for proteins of interest.
Prepare buffer: 50 mM HEPES pH 7.5, 150 mM NaCl, 0.05% (v/v) Tween, and 10% (v/v) glycerol were combined and pH was adjusted to 7.5, then filtered. 5 mM DTT, was added, and buffer without DMSO was reserved for compound resuspension. 2% (v/v) DMSO was added for assay buffer, and separately 1% DMSO was used to make buffer for resuspending compounds.
Prepare compounds: Using a Bravo liquid handler, 99 μL of 1% (v/v) DMSO assay buffer was added to 1 μL compounds in DMSO.
Run 8K Method: Biotin CAPture (CAP) chip surface was regenerated prior to run by: Inserting CAP chip into Biacore 8K, prime machine with assay buffer with 2% (v/v) DMSO; Setting instrument temperature to 20° C.; Conditioning surface with NaOH/GdnHCl reagents from CAP chip kit (60 seconds, 10 μL/min); and Capturing oligo-Streptavidin (SA) reagent from CAP kit (600 seconds, 1 μL/min), expected capture ˜2500 RU. JAK2 JH1 or JH2 protein was immobilized by preparing a sample of 0.5 uM JH1 or 0.4 uM JH2 protein diluted in assay buffer without DMSO and supplemented with 10 uM of a selected compound of the invention as a stabilizer (370 seconds, 5 uL/min), expected capture ˜1000 RU. Remaining biotin sites on SA were blocked with 1 uM biotin (30 seconds, 20 uL/min), then equilibrated for 1800 seconds at 100 uL/min. Compounds being assayed were run in single cycle kinetics: 4 doses with a top concentration of 5 uM (JH1) or 500 nM (JH2), dilution factor of 3, at 20° C., for a contact time of 60 seconds, and a dissociation time of 300 seconds (JH1) or 1200 seconds (JH2), at a flow rate of 30 uL/min. The surface was completely regenerated after each compound is run, and JH1 or JH2 protein was immobilized fresh prior to each new compound. Data were fitted kinetically with 1:1 binding model using Biacore Insight Evaluation Software.

[4] = Homo sapiens, TF-1, TF1 cells, JAK2 V617F

T1 sequence (O60674 536-812 W659A/W777A/F794H): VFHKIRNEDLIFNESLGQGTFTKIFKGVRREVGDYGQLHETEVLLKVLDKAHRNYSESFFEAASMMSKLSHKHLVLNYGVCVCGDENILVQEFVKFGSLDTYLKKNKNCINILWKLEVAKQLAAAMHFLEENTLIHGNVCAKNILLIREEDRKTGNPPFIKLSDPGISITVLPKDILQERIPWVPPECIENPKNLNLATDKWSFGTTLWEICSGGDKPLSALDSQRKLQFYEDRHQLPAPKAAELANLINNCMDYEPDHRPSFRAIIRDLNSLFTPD

IC50 [1, 4] [nM]	IC50 [2, 4] [nM]	Kd [3] [nM]	IC50 ([1]; TF1 JAK2 V617F) [nM]	IC50 ([2]; TF1 JAK2 V617F) [nM]	Kd ([3]; SPR, JAK2 JH2 domain) [nM]	Structure (SMILES)
50 to 500	50 to 500	0.01 to 10	–	–	–	CNC(=O)c1nnc(NC(=O)C2CC2)cc1Nc1cccc(-c2cnn(C3CN(Cc4cccc(C(C)(C)C#N)n4)C3)c2)c1OC [Compound 277]
–	–	–	50 to 500	50 to 500	0.01 to 10	CNC(=O)c1nnc(NC(=O)C2CC2)cc1Nc1cccc(-c2cnn(C3CN(Cc4cccnn4)C3)c2)c1OC [Compound 109]
–	–	–	500 to 5000	500 to 5000	0.01 to 10	CNC(=O)c1nnc(NC(=O)C2CC2)cc1Nc1cccc(-c2cnn(C3CN(Cc4cccc(F)c4)C3)c2)c1OC [Compound 91]
500 to 5000	500 to 5000	0.01 to 10	–	–	–	CNC(=O)c1nnc(NC(=O)C2CC2)cc1Nc1ccc(Cl)c(-c2ccc(C(=O)N(C)Cc3cc(C#N)ccn3)cc2)c1OC [Compound 217]
500 to 5000	500 to 5000	10 to 50	–	–	–	CNC(=O)c1nnc(NC(=O)C2CC2)cc1Nc1cccc(-c2cnn([C@H]3C[C@@H]([C@H](OC)c4ccccn4)C3)c2)c1OC (single isomer, unassigned) [Compound 350]
50 to 500	50 to 500	0.01 to 10	–	–	–	CNC(=O)c1nnc(NC(=O)C2CC2)cc1Nc1cccc(-c2cn([C@H]3CN(Cc4cccc(C#N)n4)[C@@H]3C)nn2)c1OC (stereo in doubt) [Compound 234]
–	–	–	50 to 500	50 to 500	0.01 to 10	CNC(=O)c1nnc(NC(=O)C2CC2)cc1Nc1cccc(-c2cnn(C3CN(Cc4csc(C)n4)C3)c2)c1OC [Compound 126]
50 to 500	50 to 500	0.01 to 10	–	–	–	CNC(=O)c1nnc(NC(=O)C2CC2)cc1Nc1cccc(-c2cnn(C3CN(Cc4cccc(S(C)(=O)=O)n4)C3)c2)c1OC [Compound 304]
50 to 500	50 to 500	0.01 to 10	–	–	–	CNC(=O)c1nnc(NC(=O)C2CC2)cc1Nc1cccc(-c2cnn(C3CN(Cc4cccc5nccn45)C3)c2)c1OC [Compound 374]
–	–	–	50 to 500	50 to 500	0.01 to 10	CNC(=O)c1nnc(NC(=O)C2CC2)cc1Nc1cccc(-c2cnn(C3CN(Cc4nccs4)C3)c2)c1OC [Compound 122]
–	–	–	500 to 5000	500 to 5000	0.01 to 10	CNC(=O)c1nnc(NC(=O)C2CC2)cc1Nc1cccc(-c2ccc(C(=O)N(C)Cc3ccn(C)n3)c(C(F)(F)F)c2)c1OC [Compound 171]
–	–	–	50 to 500	50 to 500	0.01 to 10	CNC(=O)c1nnc(NC(=O)C2CC2)cc1Nc1cccc(-c2cnn(C3CN(Cc4cscn4)C3)c2)c1OC [Compound 124]
500 to 5000	500 to 5000	0.01 to 10	–	–	–	CNC(=O)c1nnc(NC(=O)C2CC2)cc1Nc1cccc(-c2ccc(C(=O)N(C)Cc3cc(C#N)cnn3)nc2)c1OC [Compound 332]
500 to 5000	500 to 5000	0.01 to 10	–	–	–	CNC(=O)c1nnc(NC(=O)C2CC2)cc1Nc1cccc(-c2cn([C@@H]3CN(Cc4cccc(C)n4)[C@H]3C)nn2)c1OC (stereo in doubt) [Compound 238]

Further lines, the molecule ahead of its results:

Structure (SMILES)	IC50 [1, 4] [nM]	IC50 [2, 4] [nM]	Kd [3] [nM]	IC50 ([1]; TF1 JAK2 V617F) [nM]	IC50 ([2]; TF1 JAK2 V617F) [nM]	Kd ([3]; SPR, JAK2 JH2 domain) [nM]
CNC(=O)c1nnc(NC(=O)C2CC2)cc1Nc1cccc(-c2ccc(C(=O)N(C)Cc3cnn(C(F)F)c3C)nc2)c1OC [Compound 298]	500 to 5000	500 to 5000	0.01 to 10	–	–	–
CNC(=O)c1nnc(NC(=O)C2CC2)cc1Nc1cccc(-c2ccc(C(=O)N(C)Cc3cn(C)nc3C(F)(F)F)nn2)c1OC [Compound 75]	–	–	–	500 to 5000	500 to 5000	0.01 to 10
CNC(=O)c1cnc(NC(=O)C2CC2)cc1Nc1cccc(-c2ccc(C(=O)N(C)Cc3cc(C#N)ccn3)nc2)c1OC [Compound 176]	–	–	–	50 to 500	500 to 5000	0.01 to 10
CNC(=O)c1nnc(NC(=O)C2CC2)cc1Nc1cccc(-c2cc(C3CN(Cc4cc(C#N)ccn4)C3)nn2C)c1OC [Compound 177]	–	–	–	5000 to 100000	5000 to 100000	0.01 to 10
CNC(=O)c1nnc(NC(=O)C2CC2)cc1Nc1cccc(-c2cnn(C3CN(Cc4cccc(NC(C)=O)n4)C3)c2)c1OC [Compound 260]	50 to 500	50 to 500	0.01 to 10	–	–	–
CNC(=O)c1nnc(NC(=O)C2CC2)cc1Nc1cccc(-c2ccc(C(=O)N(C)C[C@H]3Cc4ccccc4CO3)nc2)c1OC (single isomer, unassigned) [Compound 139]	–	–	–	5000 to 100000	500 to 5000	10 to 50
CNC(=O)c1nnc(NC(=O)C2CC2)cc1Nc1cccc(-c2ccc(C(=O)N(C)Cc3ccn(C)n3)nn2)c1OC [Compound 76]	–	–	–	500 to 5000	500 to 5000	0.01 to 10
CNC(=O)c1nnc(NC(=O)C2CC2)cc1Nc1cccc(-c2cnn(C3CN(Cc4cccc(C#CC(C)(C)O)n4)C3)c2)c1OC [Compound 259]	50 to 500	50 to 500	0.01 to 10	–	–	–
CNC(=O)c1nnc(NC(=O)C2CC2)cc1Nc1cccc(-c2cnc(C3CN(Cc4cccc(C#N)n4)C3)nc2)c1OC [Compound 305]	500 to 5000	500 to 5000	0.01 to 10	–	–	–
CNC(=O)c1nnc(NC(=O)C2CC2)cc1Nc1ccc(C)c(-c2ccc(C(=O)N(C)Cc3nccs3)nc2)c1OC [Compound 180]	–	–	–	500 to 5000	500 to 5000	0.01 to 10
CNC(=O)c1nnc(NC(=O)C2CC2)cc1Nc1cccc(-c2cnn(C3CN(Cc4cccc(C5(O)CC5)n4)C3)c2)c1OC [Compound 274]	50 to 500	50 to 500	0.01 to 10	–	–	–
CNC(=O)c1nnc(NC(=O)C2CC2)cc1Nc1cccc(-c2cnn(C3CN(Cc4cccc(N)n4)C3)c2)c1OC [Compound 242]	50 to 500	50 to 500	0.01 to 10	–	–	–
CNC(=O)c1nnc(NC(=O)C2CC2)cc1Nc1cccc(-c2cnn(C3CN(Cc4ccc(C#N)cn4)C3)c2)c1OC [Compound 249]	5000 to 100000	5000 to 100000	10 to 50	–	–	–
CCn1cncc1CN(C)C(=O)c1ccc(-c2cccc(Nc3cc(NC(=O)C4CC4)nnc3C(=O)NC)c2OC)cn1 [Compound 96]	–	–	–	500 to 5000	500 to 5000	0.01 to 10
CNC(=O)c1nnc(NC(=O)C2CC2)cc1Nc1ccc(C#N)c(-c2ccc(C(=O)N(C)Cc3cc(C#N)ccn3)cc2)c1OC [Compound 272]	500 to 5000	500 to 5000	0.01 to 10	–	–	–
CNC(=O)c1nnc(NC(=O)C2CC2)cc1Nc1cccc(-c2ccc(C(=O)N(C)Cc3cscn3)nc2)c1OC [Compound 57]	–	–	–	50 to 500	50 to 500	0.01 to 10
CNC(=O)c1nnc(NC(=O)C2CC2)cc1Nc1cccc(-c2ccc(C(=O)N(C)Cc3cn(C(F)F)nc3C)nc2)c1OC [Compound 297]	50 to 500	50 to 500	0.01 to 10	–	–	–
CNC(=O)c1nnc(NC(=O)C2CC2)cc1Nc1cccc(-c2cnn(C3CN(Cc4nccc5cc[nH]c45)C3)c2)c1OC [Compound 254]	50 to 500	50 to 500	0.01 to 10	–	–	–
CNC(=O)c1nnc(NC(=O)C2CC2)cc1Nc1cccc(-c2ccc(C(=O)N(C)Cc3cccn(C)c3=O)nc2OC)c1OC [Compound 25]	–	–	–	500 to 5000	500 to 5000	0.01 to 10
